From PubChem BioAssay AID330 (DTP/NCI, 2004)
“And” between values parts separate entries of the source, which are not always exact repeats. Equal entries are not always repeated. Inconclusive results and toxic doses are left out.

Tested on: P388 leukemia ip, CD2F1 mice, survival T/C
Assay: NCI In Vivo Anticancer Drug Screen. Data for tumor model P388 Leukemia (intraperitoneal) in CD2F1 (CDF1) mice
Conditions: endpoint: median survival time, higher = longer survival
Method in brief: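 Mice carrying the transplanted tumor received test compound or vehicle. Survival was recorded in each group, and the value is the treated-group measurement divided by that of the vehicle-treated control group.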

[1] = dose: 60.0 mg/kg/injection, schedule: Q01DX005 (ip), vehicle: saline with Tween-80
[2] = dose: 120.0 mg/kg/injection, schedule: Q01DX005 (ip), vehicle: saline with Tween-80
[3] = dose: 240.0 mg/kg/injection, schedule: Q01DX005 (ip), vehicle: saline with Tween-80
[4] = dose: 50.0 mg/kg/injection, schedule: Q04DX003 (ip), vehicle: other
[5] = dose: 50.0 mg/kg/injection, schedule: Q01DX009 (ip), vehicle: saline
[6] = dose: 100.0 mg/kg/injection, schedule: Q01DX009 (ip), vehicle: saline
[7] = dose: 200.0 mg/kg/injection, schedule: Q01DX009 (ip), vehicle: saline
[8] = dose: 50.0 mg/kg/injection, schedule: Q01DX009 (ip), vehicle: Klucel (hydroxypropylcellulose) (HPC)
[9] = dose: 100.0 mg/kg/injection, schedule: Q01DX009 (ip), vehicle: Klucel (hydroxypropylcellulose) (HPC)
[10] = dose: 25.0 mg/kg/injection, schedule: Q01DX009 (ip), vehicle: saline with Tween-80
[11] = dose: 50.0 mg/kg/injection, schedule: Q01DX009 (ip), vehicle: saline with Tween-80
[12] = dose: 100.0 mg/kg/injection, schedule: Q01DX009 (ip), vehicle: saline with Tween-80
[13] = dose: 100.0 mg/kg/injection, schedule: Q04DX003 (ip), vehicle: saline
[14] = dose: 60.0 mg/kg/injection, schedule: Q01DX005 (ip), vehicle: saline
[15] = dose: 200.0 mg/kg/injection, schedule: Q01DX009 (ip), vehicle: saline with Tween-80

For `O=NN(CCCl)C(=O)NC1CCCCC1`, the T/C (dose: 1.0 mg/kg/injection, schedule: Q01DX009 (ip), vehicle: saline with Tween-80) was 118 % of control, the T/C (dose: 4.0 mg/kg/injection, schedule: Q01DX009 (ip), vehicle: saline with Tween-80) was 168 % of control and the T/C (dose: 7.2 mg/kg/injection, schedule: Q04DX003 (ip), vehicle: saline + alcohol) was 204 % of control. The T/C (dose: 8.0 mg/kg/injection, schedule: Q01DX009 (ip), vehicle: saline with Tween-80) was 218 % of control and 240 % of control, the T/C (dose: 12.0 mg/kg/injection, schedule: Q04DX003 (ip), vehicle: carboxymethylcellulose (CMC)) was 154 % of control and the T/C (dose: 12.0 mg/kg/injection, schedule: Q04DX003 (ip), vehicle: saline + alcohol) was 339 % of control. For the same compound, the T/C (dose: 16.0 mg/kg/injection, schedule: Q01DX009 (ip), vehicle: saline with Tween-80) was 272 % of control, the T/C (dose: 18.0 mg/kg/injection, schedule: Q04DX003 (ip), vehicle: carboxymethylcellulose (CMC)) was 190 % of control and 191 % of control and the T/C (dose: 20.0 mg/kg/injection, schedule: Q04DX003 (ip), vehicle: saline + alcohol) was 412 % of control. The T/C (dose: 27.0 mg/kg/injection, schedule: Q04DX003 (ip), vehicle: carboxymethylcellulose (CMC)) was 227 % of control and 243 % of control, the T/C (dose: 33.3 mg/kg/injection, schedule: Q04DX003 (ip), vehicle: saline + alcohol) was 119 % of control and the T/C (dose: 40.0 mg/kg/injection, schedule: Q04DX003 (ip), vehicle: carboxymethylcellulose (CMC)) was 304 % of control and 538 % of control. For the same compound, the T/C (dose: 64.0 mg/kg/injection, schedule: Q01DX001 (ip), vehicle: saline + alcohol) was 250 % of control and 265 % of control and the T/C (dose: 128.0 mg/kg/injection, schedule: Q01DX001 (ip), vehicle: saline + alcohol) was 168 % of control.

With `O=[N+]([O-])c1ccc(-c2nc3ccc(F)cc3[nH]2)o1` the T/C [1] was 101 % of control, the T/C [2] was 97 % of control and the T/C [3] was 104 % of control.

For `O=C1CCCCc2scc(C(=O)O)c2N1`, the T/C (dose: 100.0 mg/kg/injection, schedule: Q04DX003 (ip), vehicle: Klucel (hydroxypropylcellulose) (HPC)) was 104 % of control, the T/C (dose: 200.0 mg/kg/injection, schedule: Q04DX003 (ip), vehicle: Klucel (hydroxypropylcellulose) (HPC)) was 111 % of control and the T/C (dose: 400.0 mg/kg/injection, schedule: Q04DX003 (ip), vehicle: Klucel (hydroxypropylcellulose) (HPC)) was 102 % of control.

For `C(=C/c1cc2ccc(C3=NCCN3)cc2o1)/c1cc2ccc(C3=NCCN3)cc2[nH]1`, the T/C (dose: 50.0 mg/kg/injection, schedule: Q04DX003 (ip), vehicle: suspension in saline) was 114 % of control, the T/C (dose: 100.0 mg/kg/injection, schedule: Q04DX003 (ip), vehicle: suspension in saline) was 158 % of control and 164 % of control and the T/C (dose: 200.0 mg/kg/injection, schedule: Q04DX003 (ip), vehicle: suspension in saline) was 298 % of control.

`FC(F)(F)/C([S-])=C(/[S-])C(F)(F)F.FC(F)(F)/C([S-])=C(/[S-])C(F)(F)F.FC(F)(F)/C([S-])=C(/[S-])C(F)(F)F.FC(F)(F)/C([S-])=C(/[S-])C(F)(F)F.[Co+3].[Co+3]` was tested, and the T/C (dose: 33.0 mg/kg/injection, schedule: Q04DX003 (ip), vehicle: other) was 107 % of control and the T/C [4] was 100 % of control.

With `O=C(O)CCC(=O)NCCOC(=O)CCC(=O)O` the T/C [5] was 99 % of control, the T/C [6] was 104 % of control and the T/C [7] was 106 % of control.

For `N#CCCCCCN1CCN(c2cccc(Cl)c2)CC1`, the T/C [8] was 100 % of control, the T/C [9] was 100 % of control and the T/C (dose: 200.0 mg/kg/injection, schedule: Q01DX009 (ip), vehicle: Klucel (hydroxypropylcellulose) (HPC)) was 96 % of control.

For `C=CCN1Cc2ccccc2-c2ccccc2C1`, the T/C [5] was 94 % of control, the T/C [6] was 106 % of control and the T/C [7] was 108 % of control.

For `S=c1nnn(C2CCCN2)[nH]1` (centres undefined), the T/C (dose: 100.0 mg/kg/injection, schedule: Q01DX001 (ip), vehicle: Klucel (hydroxypropylcellulose) (HPC)) was 100 % of control, the T/C (dose: 200.0 mg/kg/injection, schedule: Q01DX001 (ip), vehicle: Klucel (hydroxypropylcellulose) (HPC)) was 97 % of control and the T/C (dose: 400.0 mg/kg/injection, schedule: Q01DX001 (ip), vehicle: Klucel (hydroxypropylcellulose) (HPC)) was 100 % of control.

In the case of `CN1CCCc2cccc(c2)CCC1`, the T/C (dose: 12.5 mg/kg/injection, schedule: Q01DX005 (ip), vehicle: Klucel (hydroxypropylcellulose) (HPC)) is reported as 98 % of control, the T/C (dose: 25.0 mg/kg/injection, schedule: Q01DX005 (ip), vehicle: Klucel (hydroxypropylcellulose) (HPC)) is reported as 100 % of control and the T/C (dose: 50.0 mg/kg/injection, schedule: Q01DX005 (ip), vehicle: Klucel (hydroxypropylcellulose) (HPC)) is reported as 99 % of control and 95 % of control.

With `O=C1c2ccccc2N(C(=O)CN2CCOCC2)CN1c1ccccc1` the T/C [5] was 98 % of control, the T/C [6] was 100 % of control and the T/C [7] was 98 % of control.

With `Cc1cc2oc(=O)c3c(c2c(O)c1CN1CCCC1)CCCC3` the T/C (dose: 16.0 mg/kg/injection, schedule: Q01DX009 (ip), vehicle: Klucel (hydroxypropylcellulose) (HPC)) was 97 % of control, the T/C (dose: 32.0 mg/kg/injection, schedule: Q01DX009 (ip), vehicle: Klucel (hydroxypropylcellulose) (HPC)) was 101 % of control and the T/C (dose: 64.0 mg/kg/injection, schedule: Q01DX009 (ip), vehicle: Klucel (hydroxypropylcellulose) (HPC)) was 103 % of control. For the same compound, the T/C (dose: 128.0 mg/kg/injection, schedule: Q01DX009 (ip), vehicle: Klucel (hydroxypropylcellulose) (HPC)) was 97 % of control.

`COc1ccc(C#CC(O)C(F)(F)F)cc1` (centres undefined) was tested, and the T/C [10] was 102 % of control, the T/C [11] was 106 % of control and the T/C [12] was 107 % of control.

`O=P(c1ccccc1)(c1ccccc1)c1ccccc1.O=P(c1ccccc1)(c1ccccc1)c1ccccc1.S=C=[N][Sn]([N]=C=S)([N]=C=S)[c]1ccccc1` was tested, and the T/C [13] was 105 % of control, the T/C (dose: 200.0 mg/kg/injection, schedule: Q04DX003 (ip), vehicle: saline) was 108 % of control and the T/C (dose: 400.0 mg/kg/injection, schedule: Q04DX003 (ip), vehicle: saline) was 100 % of control.

For `COC1OCCCO1`, the T/C [14] was 103 % of control, the T/C (dose: 120.0 mg/kg/injection, schedule: Q01DX005 (ip), vehicle: saline) was 104 % of control and the T/C (dose: 240.0 mg/kg/injection, schedule: Q01DX005 (ip), vehicle: saline) was 107 % of control.

With `COC(=O)c1cc2c(nn1)C(=O)Nc1ccccc1C2(C)C` the T/C [1] was 100 % of control, the T/C [2] was 105 % of control and the T/C [3] was 96 % of control.

In the case of `O=C(CCN1C(=O)NC(c2ccccc2)(c2ccccc2)C1=O)NCCN1CCOCC1`, the T/C [1] is reported as 96 % of control, the T/C [2] is reported as 100 % of control and the T/C [3] is reported as 102 % of control.

For `CC1(C)CC(OP(=[Se])(OC2CC(C)(C)N(O)C(C)(C)C2)OC2CC(C)(C)N(O)C(C)(C)C2)CC(C)(C)N1O`, the T/C (dose: 12.5 mg/kg/injection, schedule: Q01DX001 (ip), vehicle: Klucel (hydroxypropylcellulose) (HPC)) was 97 % of control, the T/C (dose: 25.0 mg/kg/injection, schedule: Q01DX001 (ip), vehicle: Klucel (hydroxypropylcellulose) (HPC)) was 102 % of control and the T/C (dose: 50.0 mg/kg/injection, schedule: Q01DX001 (ip), vehicle: Klucel (hydroxypropylcellulose) (HPC)) was 104 % of control.

In the case of `CC(=O)/C(=C\c1ccc([N+](=O)[O-])cc1)C(=O)CCN(C)C`, the T/C (dose: 30.0 mg/kg/injection, schedule: Q01DX005 (ip), vehicle: saline) is reported as 118 % of control and the T/C [14] is reported as 121 % of control and 123 % of control.

With `N#Cc1nccnc1Cl` the T/C (dose: 25.0 mg/kg/injection, schedule: Q01DX009 (ip), vehicle: other) was 95 % of control, the T/C (dose: 25.0 mg/kg/injection, schedule: Q04DX003 (ip), vehicle: other) was 100 % of control and the T/C (dose: 50.0 mg/kg/injection, schedule: Q01DX009 (ip), vehicle: other) was 100 % of control. The T/C [4] was 100 % of control, the T/C (dose: 100.0 mg/kg/injection, schedule: Q01DX009 (ip), vehicle: other) was 100 % of control and the T/C (dose: 100.0 mg/kg/injection, schedule: Q04DX003 (ip), vehicle: other) was 100 % of control.

In the case of `CC(=O)N1CC(=O)NC1=S`, the T/C [11] is reported as 106 % of control, the T/C [12] is reported as 97 % of control and the T/C [15] is reported as 103 % of control and 95 % of control. For the same compound, the T/C (dose: 400.0 mg/kg/injection, schedule: Q01DX009 (ip), vehicle: saline with Tween-80) was 104 % of control.

In the case of `COc1cccc(C(=O)NC[n+]2ccccc2)c1`, the T/C (dose: 25.0 mg/kg/injection, schedule: Q04DX003 (ip), vehicle: saline) is reported as 100 % of control, the T/C (dose: 50.0 mg/kg/injection, schedule: Q04DX003 (ip), vehicle: saline) is reported as 100 % of control and the T/C [13] is reported as 109 % of control.

With `N#CC(c1ccc(Cl)cc1)C(c1ccccc1)c1ccccc1` (centres undefined) the T/C [11] was 112 % of control, the T/C [12] was 107 % of control and the T/C [15] was 112 % of control.

For `CCN(CC)CCNC1=CC(=S)NC(C)(C)C1`, the T/C [10] was 103 % of control, the T/C [11] was 94 % of control and the T/C [12] was 106 % of control. The T/C [15] was 94 % of control.

With `COC(=O)Nc1cn2ccc(Sc3ccccc3)cc2n1` the T/C [8] was 103 % of control and 109 % of control and the T/C [9] was 105 % of control and 122 % of control.
